From patent US20260262643A1, “HERBICIDAL BENZOXAZINES” (FMC CORPORATION, priority 2022, published 2026)

Experiments:
barnyardgrass [1] = assay: Test C preemergence; type: in vivo, Echinochloa crusgalli
Procedure, shortened: (§1)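 Seeds in loam–sand blend received preemergence directed soil spray of test chemicals in non-phytotoxic solvent with surfactant; postemergence treatment was applied at one- to two-leaf stage (2–10 cm). After 10 days in greenhouse, injury rated visually versus untreated controls, 0 (no effect) to 100 (complete control).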

blackgrass [2] = assay: Test C preemergence; type: in vivo, Alopecurus myosuroides
Procedure, shortened: as §1

corn [3] = assay: Test C preemergence; type: in vivo, Zea mays
Procedure, shortened: as §1

foxtail, giant [4] = assay: Test C preemergence; type: in vivo, Setaria faberi
Procedure, shortened: as §1

kochia [5] = assay: Test C preemergence; type: in vivo, Bassia scoparia
Procedure, shortened: as §1

oat, wild [6] = assay: Test C preemergence; type: in vivo, Avena fatua
Procedure, shortened: as §1

pigweed, palmer [7] = assay: Test C preemergence; type: in vivo, Amaranthus palmeri
Procedure, shortened: as §1

ragweed [8] = assay: Test C preemergence; type: in vivo, Ambrosia artemisiifolia
Procedure, shortened: as §1

ryegrass, Italian [9] = assay: Test C preemergence; type: in vivo, Lolium multiflorum
Procedure, shortened: as §1

soybean [10] = assay: Test C preemergence; type: in vivo, Glycine max
Procedure, shortened: as §1

wheat [11] = assay: Test C preemergence; type: in vivo, Triticum aestivum
Procedure, shortened: as §1

barnyardgrass [12] = assay: Test C postemergence; type: in vivo, Echinochloa crusgalli; conditions: 10 days, 0 to 100 scale (0 no effect, 100 complete control)
Procedure, shortened: as §1

blackgrass [13] = assay: Test C postemergence; type: in vivo, Alopecurus myosuroides; conditions: 10 days, 0 to 100 scale (0 no effect, 100 complete control)
Procedure, shortened: as §1

corn [14] = assay: Test C postemergence; type: in vivo, Zea mays; conditions: 10 days, 0 to 100 scale (0 no effect, 100 complete control)
Procedure, shortened: as §1

foxtail, giant [15] = assay: Test C postemergence; type: in vivo, Setaria faberi; conditions: 10 days, 0 to 100 scale (0 no effect, 100 complete control)
Procedure, shortened: as §1

kochia [16] = assay: Test C postemergence; type: in vivo, Bassia scoparia; conditions: 10 days, 0 to 100 scale (0 no effect, 100 complete control)
Procedure, shortened: as §1

oat, wild [17] = assay: Test C postemergence; type: in vivo, Avena fatua; conditions: 10 days, 0 to 100 scale (0 no effect, 100 complete control)
Procedure, shortened: as §1

pigweed, palmer [18] = assay: Test C postemergence; type: in vivo, Amaranthus palmeri; conditions: 10 days, 0 to 100 scale (0 no effect, 100 complete control)
Procedure, shortened: as §1

ragweed [19] = assay: Test C postemergence; type: in vivo, Ambrosia artemisiifolia; conditions: 10 days, 0 to 100 scale (0 no effect, 100 complete control)
Procedure, shortened: as §1

ryegrass, Italian [20] = assay: Test C postemergence; type: in vivo, Lolium multiflorum; conditions: 10 days, 0 to 100 scale (0 no effect, 100 complete control)
Procedure, shortened: as §1

soybean [21] = assay: Test C postemergence; type: in vivo, Glycine max; conditions: 10 days, 0 to 100 scale (0 no effect, 100 complete control)
Procedure, shortened: as §1

wheat [22] = assay: Test C postemergence; type: in vivo, Triticum aestivum; conditions: 10 days, 0 to 100 scale (0 no effect, 100 complete control)
Procedure, shortened: as §1

galium = assay: Test C postemergence; type: in vivo, Galium aparine; conditions: 10 days, 0 to 100 scale (0 no effect, 100 complete control)
Procedure, shortened: as §1

horseweed = assay: Test C postemergence; type: in vivo, Erigeron canadensis; conditions: 10 days, 0 to 100 scale (0 no effect, 100 complete control)
Procedure, shortened: as §1

barnyardgrass [23] = assay: Test D flooded paddy test; type: in vivo, Echinochloa crus-galli; conditions: 250 g ai/ha, applied to paddy water, visual rating after 13 to 14 days, scale 0 to 100 (0 no effect, 100 complete control)
Procedure, shortened: (§2)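 Post-flood water application at the 2-leaf stage; 3 cm flood depth kept constant; visual control rating 0–100 after 13–14 days greenhouse growth.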

ducksalad = assay: Test D flooded paddy test; type: in vivo, Heteranthera limosa; conditions: 250 g ai/ha, applied to paddy water, visual rating after 13 to 14 days, scale 0 to 100 (0 no effect, 100 complete control)
Procedure, shortened: as §2

rice = assay: Test D flooded paddy test; type: in vivo, Oryza sativa; conditions: 250 g ai/ha, applied to paddy water, visual rating after 13 to 14 days, scale 0 to 100 (0 no effect, 100 complete control)
Procedure, shortened: as §2

sedge, umbrella = assay: Test D flooded paddy test; type: in vivo, Cyperus difformis; conditions: 250 g ai/ha, applied to paddy water, visual rating after 13 to 14 days, scale 0 to 100 (0 no effect, 100 complete control)
Procedure, shortened: as §2

[24] = 500 g ai/ha, preemergence, 0 to 100 scale (0 no effect, 100 complete control)
[25] = Preemergence, 125 g ai/ha, 0 to 100 scale, 0 no effect, 100 complete control

## CCc1ncn(-c2cc(C(=O)N3CC(C(F)(F)F)Oc4c(Cl)cccc43)ccn2)n1 (racemic) [Compound 334]
Barnyardgrass [1]; [24]
  Barnyardgrass plant response rating: 100
Barnyardgrass [1]; [25]
  Plant response rating, Barnyardgrass: 60
Blackgrass [2]; [24]
  Blackgrass plant response rating: 90
Blackgrass [2]; [25]
  Plant response rating, Blackgrass: 80
Corn [3]; [24]
  Corn plant response rating: 50
Corn [3]; [25]
  Plant response rating, Corn: 0
foxtail, giant [4]; [24]
  Foxtail, Giant plant response rating: 100
foxtail, giant [4]; [25]
  Plant response rating, Foxtail, Giant: 90
Kochia [5]; [24]
  Kochia plant response rating: 80
Kochia [5]; [25]
  Plant response rating, Kochia: 40
oat, wild [6]; [24]
  Oat, Wild plant response rating: 30
oat, wild [6]; [25]
  Plant response rating, Oat, Wild: 0
pigweed, palmer [7]; [24]
  Pigweed, Palmer plant response rating: 100
pigweed, palmer [7]; [25]
  Plant response rating, Pigweed, Palmer: 90
Ragweed [8]; [24]
  Ragweed plant response rating: 30
Ragweed [8]; [25]
  Plant response rating, Ragweed: 0
ryegrass, Italian [9]; [24]
  Ryegrass, Italian plant response rating: 90
ryegrass, Italian [9]; [25]
  Plant response rating, Ryegrass, Italian: 70
Soybean [10]; [24]
  Soybean plant response rating: 60
Soybean [10]; [25]
  Plant response rating, Soybean: 0
Wheat [11]; [24]
  Wheat plant response rating: 20
Wheat [11]; [25]
  Plant response rating, Wheat: 0
Barnyardgrass [12]; 500 g ai/ha, postemergence
  Plant response rating, Barnyardgrass: 90
Barnyardgrass [12]; Postemergence, 125 g ai/ha
  Plant response rating, Barnyardgrass: 20
Blackgrass [13]; 500 g ai/ha, postemergence
  Plant response rating, Blackgrass: 80
Blackgrass [13]; Postemergence, 125 g ai/ha
  Plant response rating, Blackgrass: 40
Corn [14]; 500 g ai/ha, postemergence
  Plant response rating, Corn: 90
Corn [14]; Postemergence, 125 g ai/ha
  Plant response rating, Corn: 40
foxtail, giant [15]; 500 g ai/ha, postemergence
  Plant response rating, Foxtail, Giant: 90
foxtail, giant [15]; Postemergence, 125 g ai/ha
  Plant response rating, Foxtail, Giant: 70
Kochia [16]; 500 g ai/ha, postemergence
  Plant response rating, Kochia: 80
Kochia [16]; Postemergence, 125 g ai/ha
  Plant response rating, Kochia: 80
oat, wild [17]; 500 g ai/ha, postemergence
  Plant response rating, Oat, Wild: 40
oat, wild [17]; Postemergence, 125 g ai/ha
  Plant response rating, Oat, Wild: 10
pigweed, palmer [18]; 500 g ai/ha, postemergence
  Plant response rating, Pigweed, Palmer: 50
pigweed, palmer [18]; Postemergence, 125 g ai/ha
  Plant response rating, Pigweed, Palmer: 30
Ragweed [19]; 500 g ai/ha, postemergence
  Plant response rating, Ragweed: 60
Ragweed [19]; Postemergence, 125 g ai/ha
  Plant response rating, Ragweed: 0
ryegrass, Italian [20]; 500 g ai/ha, postemergence
  Plant response rating, Ryegrass, Italian: 70
ryegrass, Italian [20]; Postemergence, 125 g ai/ha
  Plant response rating, Ryegrass, Italian: 50
Soybean [21]; 500 g ai/ha, postemergence
  Plant response rating, Soybean: 100
Soybean [21]; Postemergence, 125 g ai/ha
  Plant response rating, Soybean: 100
Wheat [22]; 500 g ai/ha, postemergence
  Plant response rating, Wheat: 50
Wheat [22]; Postemergence, 125 g ai/ha
  Plant response rating, Wheat: 20
galium; 500 g ai/ha, postemergence
  Plant response rating, Galium: 100
galium; Postemergence, 125 g ai/ha
  Plant response rating, Galium: 100
horseweed; 500 g ai/ha, postemergence
  Plant response rating, Horseweed: 40
horseweed; Postemergence, 125 g ai/ha
  Plant response rating, Horseweed: 0
Barnyardgrass [23]
  Plant response rating, Barnyardgrass (Flood): 10
ducksalad
  Plant response rating, Ducksalad (Flood): 30
rice
  Plant response rating, Rice (Flood): 0
sedge, umbrella
  Plant response rating, Sedge, Umbrella (Flood): 70
